Patent US20100048704A1, “PHARMACEUTICAL AND NUTRACEUTICAL PRODUCTS COMPRISING VITAMIN K2” (NATTOPHARMA ASA, priority 2006, published 2010)

Key:
[1] = Stability of K vitamins in cell culture media with no cells present; type: physicochemical; conditions: 1 μM of each vitamin, three growth media, over 48 hours
Protocol: Here we have checked the stability of the various forms of vitamin K (1 μM of each) in the three cell culture media with no cells present.

[2] = test system: vascular smooth muscle cells, MG-63 cell line, HepG2 cell line; assay: K epoxide formation in the presence of warfarin (bypassing of warfarin) in three cell types; type: cell-based; conditions: for interference with warfarin: 10 μmol/L warfarin added 18 h before and present during vitamin K incubation
Protocol: (§1) This series of cell culture experiments describe vitamin K uptake and metabolism under various conditions. The following forms of vitamin K were compared: K1, MK-4, MK-7, MK-8 and MK-9. They were tested in three different cell types: the vascular smooth muscle cells, the osteoblast-like MG-63 cell line and the hepatocyte-like HepG2 cell line. In all experiments the vitamins were used as a mixture containing 1 μmol/L of each vitamin. All data are the means of triplicate experiments.
(§2) Under normal conditions, all forms of vitamin K are taken up in their quinone form, and they are reduced into the hydroquinone before being active as a cofactor for the enzyme gammaglutamylcarboxylase. During the carboxylation they are oxidized into epoxides, which can be reduced by the membrane-bound enzyme VKOR. VKOR forms the target for drugs known as coumarin derivatives, which inactivate the enzyme and thus block the recycling of K epoxides. Vitamin K quinones (and not the epoxides) can be reduced by a second enzyme system, known as DT diaphorase. […] Coumarin derivatives are widely used as oral anticoagulants; their mode of action is based on the inhibition of clotting factor carboxylation in the liver. Interference with coumarin derivatives is thus a potential risk of vitamin K supplements. Therefore we have investigated whether and to which extend the various K vitamins interfere with warfarin. In the study described, 10 μmol/L of warfarin was added to the culture media 18 h before adding vitamin K. Also during incubation with K vitamins this concentration of warfarin was present.

[3] = test system: vascular smooth muscle cells, MG-63 cell line, HepG2 cell line; assay: Cellular vitamin K uptake in three cell types; type: cell-based; conditions: for cellular uptake compared with other K vitamins: all cells, mixture containing 1 μmol/L of each vitamin
Protocol: as §1
(§3) Cells were grown until 80% confluence after which vitamin K was added in different concentrations (see FIGS. 5A-C). The added vitamin K concentration is given as nmol/L of culture medium, the vitamin K recovered is given as nmol/g of cellular protein. Note the different scales for each vitamin.
Cellular uptake of K vitamins was followed in time. In all cases a mixture of the various K vitamins (1 μmol/L final concentration in the culture medium) was added to the cells after they had grown to 80% confluence. […] The mechanism behind this cellular preference for MK-7 is not quite clear.

[4] = test system: vascular smooth muscle cells; assay: Carboxylated matrix Gla-protein in culture medium with a single form of vitamin K; type: cell-based; conditions: 1% FCS, single form of vitamin K 1 μmol/L, 24 hours incubation
Protocol: (§4) Since under standard cell culture conditions no epoxides are formed, we have applied sub-optimal growth conditions by decreasing the fetal calf serum in the culture medium to 1% (v/v). […] This was ruled out in an experiment in which VSMC and MG63 were grown at 1% FCS and with only one single form of vitamin K present (1 μmol/L).

[5] = test system: MG63; assay: Carboxylated osteocalcin in culture medium with a single form of vitamin K; type: cell-based; conditions: 1% FCS, single form of vitamin K 1 μmol/L, 24 hours incubation
Protocol: as §4

[6] = test system: vascular smooth muscle cells, MG-63 cell line, HepG2 cell line; assay: K epoxide formation without warfarin under cell starvation (1% fetal calf serum); type: cell-based; conditions: no warfarin, fetal calf serum decreased to 1% (v/v)
Protocol: as §1, §4

[7] = test system: MG63 cell line; assay: K epoxide formation in the presence of warfarin in MG63; type: cell-based; conditions: 10 μmol/L warfarin
Protocol: as §1
as §2, with “In the study described, 10 μmol/L of warfarin was added to the culture media 18 h before adding vitamin K. Also during incubation with K vitamins this concentration of warfarin was present.” left out

[8] = test system: osteocalcin; assay: Carboxylated / non-carboxylated osteocalcin in serum during fish oil and MK-7 intake; type: in vivo, human; conditions: 5 g/day fish oil plus 10 μg/day MK-7, months 3 and 4
Excerpt: In the same experiment as described above, also serum was collected, in which carboxylated and non-carboxylated osteocalcin species were monitored using the conformation-specific osteocalcin kits from Takara (Japan).

[9] = Stability of MK-7 dissolved in fish oil and krill oil; type: physicochemical; conditions: for time compositions remained stable: MK-7 mixed with fish oil or krill oil
Protocol: Compositions as described in Examples 2 and 4 (MK-7 dissolved in fish oil and krill oil, respectively) were prepared to a final concentration of 2 μg of MK-7 per g of oil. Samples were prepared in sealed glass bottles and kept in a dark place at room temperature, 40° C. and 100° C., respectively. At regular times, samples were taken and analyzed for their MK-7 content. No loss of MK-7 was observed, even after 2 weeks at 100° C.

[10] = test system: blood clotting factor carboxylation; conditions: dosages as high as 100 μg per day; cited from earlier work
[11] = test system: Matrix Gla-Protein (MGP); assay: Carboxylated / non-carboxylated MGP in plasma by sandwich ELISA during fish oil and MK-7 intake; type: in vivo, human; conditions: 5 g/day fish oil plus 10 μg/day MK-7, months 2, 3 and 4
Protocol: (§5) Twenty healthy males (43±8 years of age) were enrolled in the study. The mean body mass index was 25.1±3.5 kg/m^2. All subjects received 5 grams of fish oil (containing 35% EPA, 25% DHA and 10% other n-3 PUFA) per day during 4 months. During the last 3 months of the study all volunteers received additionally one soft gel capsule per day providing 10 μg of MK-7. Blood samples were collected in citrate every month to prepare platelet-rich plasma. The endogenous thrombin potential (ETP), reflecting the total thrombin activity during coagulation, was monitored according to H. C. Hemker et al. (Pathophysiology of Haemostasis and Thrombosis 2003; 33:4-15). Carboxylated and non-carboxylated Matrix Gla-Protein (MGP) species were monitored using sandwich ELISAs based on conformation-specific antibodies obtained from VitaK BV (Maastricht, The Netherlands) with normal pooled plasma as a reference. The ratio between carboxylated and non-carboxylated MGP is taken as a measure for vascular vitamin K status. All values are expressed as a percentage of those in the pooled reference plasma.

[12] = test system: MG63; assay: Cellular MK-7 uptake in MG63; type: cell-based; conditions: FIG. 5D
Protocol: as §1, §3

[13] = test system: vascular smooth muscle cells; assay: Cellular MK-7 uptake in vascular smooth muscle cells; type: cell-based; conditions: FIG. 5D
Protocol: as §1, §3

[14] = test system: endogenous thrombin potential (ETP); assay: Endogenous thrombin potential (ETP) in platelet-rich plasma of volunteers on fish oil, with or without MK-7; type: in vivo, human
Excerpt: as §5, with “During the last 3 months of the study all volunteers received additionally one soft gel capsule per day providing 10 μg of MK-7.” left out

CC(C)=CCC/C(C)=C/CC/C(C)=C/CC/C(C)=C/CC/C(C)=C/CC/C(C)=C/CC/C(C)=C/CC/C(C)=C/CC1=C(C)C(=O)c2ccccc2C1=O [MK-8]
stability in growth media [1]: fairly stable | utilization of K-vitamins in the presence of warfarin (rank order) ([2]; 10 μmol/L warfarin): MK-7>MK-8>MK-9 | cellular uptake compared with other K vitamins [3]: somewhat less

CC(C)=CCC/C(C)=C/CC/C(C)=C/CC/C(C)=C/CC1=C(C)C(=O)c2ccccc2C1=O [MK-4]
Carboxylated matrix Gla-protein in the culture medium [4]: 10.7 ng/mL | Carboxylated osteocalcin in the culture medium [5]: 4.1 ng/mL | epoxides found without warfarin at decreased fetal calf serum [6]: mainly found | interference with warfarin [2]: interfere substantially | K vitamin epoxides identified in the presence of warfarin [7]: could only identify MK-4 epoxide | cellular uptake compared with other K vitamins [3]: much less

CC(C)=CCC/C(C)=C/CC/C(C)=C/CC/C(C)=C/CC/C(C)=C/CC/C(C)=C/CC/C(C)=C/CC/C(C)=C/CC/C(C)=C/CC1=C(C)C(=O)c2ccccc2C1=O [MK-9]
stability in growth media [1]: fairly stable | utilization of K-vitamins in the presence of warfarin (rank order) ([2]; 10 μmol/L warfarin): MK-7>MK-8>MK-9 | epoxide formation in the presence of warfarin ([2]; 10 μmol/L warfarin, FIG. 7): hardly formed | cellular uptake compared with other K vitamins [3]: somewhat less

CC(C)=CCC/C(C)=C/CC/C(C)=C/CC/C(C)=C/CC/C(C)=C/CC/C(C)=C/CC/C(C)=C/CC1=C(C)C(=O)c2ccccc2C1=O [MK-7]
change in osteocalcin carboxylation [8]: significance was lost | loss of MK-7 content ([9]; 2 μg MK-7 per g fish oil or krill oil, sealed glass bottles, dark, room temperature, 40° C., 100° C., even after 2 weeks at 100° C.): No loss | time compositions remained stable ([9]; 40° C.): ≥ 6 months | time compositions remained stable ([9]; 100° C.): at least 2 weeks | time compositions remained stable ([9]; room temperature): ≥ 3 years | Carboxylated matrix Gla-protein in the culture medium [4]: 13.5 ng/mL | Carboxylated osteocalcin in the culture medium [5]: 3.9 ng/mL | stability in growth media [1]: fairly stable | effect on warfarin anticoagulation [10]: counteract the effect of warfarin | change in MGP carboxylation (ratio carboxylated / non-carboxylated MGP) [11]: significance was lost | vitamin K uptake compared between cell types [12]: lowest | utilization of K-vitamins in the presence of warfarin (rank order) ([2]; 10 μmol/L warfarin): MK-7>MK-8>MK-9 | vitamin K uptake compared between cell types [13]: highest | fish-oil induced hypocoagulability (ETP) ([14]; 10 μg/day MK-7 during last 3 of 4 months on 5 g/day fish oil): not counteracted | ETP lowering effect of marine oils ([14]; MK-7 100 μg per day and higher, marine oil intake 5 grams per day): completely reversed | endogenous thrombin potential (ETP) ([14]; MK-7 between 1 and 10 μg/day, marine oil intake 5 grams per day): did not affect | cellular uptake compared with other K vitamins [3]: taken up better than other K vitamins | cellular uptake compared with other K vitamins (dose-response, Experiment 6) ([3]; all systems, notably extrahepatic cells, cells at 80% confluence): taken up surprisingly better than the other K vitamins | cellular uptake compared with other K vitamins (time course, Experiment 7) ([3]; all three cell systems, mixture 1 μmol/L): taken up better than any of the other vitamins

CC1=C(C/C=C(\C)CCC[C@H](C)CCC[C@H](C)CCCC(C)C)C(=O)c2ccccc2C1=O [K1, vitamin K1, reference compound]
Carboxylated matrix Gla-protein in the culture medium [4]: 12.4 ng/mL | Carboxylated osteocalcin in the culture medium [5]: 3.2 ng/mL | stability in growth media [1]: fairly stable | epoxides found without warfarin at decreased fetal calf serum [6]: mainly found | interference with warfarin [2]: interfere substantially | cellular uptake compared with other K vitamins [3]: much less
